How the values were obtained:
[1] = test system: P. aeruginosa; assay: Growth of primary pathogen alone on antibiotic-supplemented Columbia agar; format: cell-based; details: Bacterial set #2; Cefepime (16 μg/mL); Columbia agar with erythrocytes 5%, 24 h at 37 C
Protocol: Four sputum samples from patients with lung infections were used. Pure bacterial culture of each microorganisms was obtained by routine microbiological methods.
In this case this antibiotic at MIC of 16 ug/mL was used in the following studies. PP alone, or Microbial Modulators (MM) alone or the original sputum were plated on the wells of 24 well plate filled with nutrient Columbia agar supplemented with erythrocytes 5% and supplemented with antibiotics taken as MIC determined against PP, but not more than 16 μg/mL and incubated 24 h at 37 C.

[2] = test system: R. dentocariosa; assay: Growth of microbial modulator alone on antibiotic-supplemented Columbia agar; format: cell-based; details: Bacterial set #2; Cefepime (16 μg/mL); Columbia agar with erythrocytes 5%, 24 h at 37 C
[3] = test system: A. ursingii; assay: as above; format: cell-based; details: Bacterial set #2; Cefepime (16 μg/mL); Columbia agar with erythrocytes 5%, 24 h at 37 C
[4] = test system: B. pumilus; assay: as above; format: cell-based; details: Bacterial set #2; Cefepime (16 μg/mL); Columbia agar with erythrocytes 5%, 24 h at 37 C
[5] = test system: MIX—PP +BM (P. aeruginosa with microbial modulators); assay: Growth of mix PP + MM (original sputum) on antibiotic-supplemented Columbia agar; format: cell-based; details: Bacterial set #2; Cefepime (16 μg/mL); Columbia agar with erythrocytes 5%, 24 h at 37 C
[6] = test system: bacteria of sputum from patients with lung diseases; assay: Standard antibiotic susceptibility study using the microbroth dilution method (Algorithm #3); format: cell-based; note: key: '+'—presence of bacterial growth, antibiotic ineffective; '−'—absence of bacterial growth, antibiotic effective
Excerpt: Algorithm #3—Standard antibiotic susceptibility study using the microbroth dilution method.

[7] = test system: bacteria of the biosample (persisters); assay: Neutropenic mice instilled with biosample and treated with antibiotic for 72 h, microbial growth in organs and blood; format: in vivo; details: neutropenic C57BL/6 mice treated for 72 h, agar with 100 ug/mL of the antibiotic
Protocol: Next, we confirmed that antibiotics selected with proposed algorithm are effective. Adult C57BL/6 mice were rendered neutropenic by injecting cyclophosphamide subcutaneously 4 days before infection (150 mg/kg of body weight), 1 day before infection (100 mg/kg), and 1 day after infection (100 mg/kg). Mice were anesthetized with 2% isoflurane and orally instilled with biosample (stored at +4 C). Briefly, nares were blocked, and mice aspirated 50 μL of the biosample into the lungs while being held vertically for 60 s.

[8] = test system: S.aureus (PP) and MM in sputum from children with pneumonia; assay: Degree of eradication of PP and MM on Columbia agar with antibiotic at concentrations achievable at the site of infection; format: cell-based; parameters: key to Degree of primary pathogen eradication, evaluation of ABEPP: % of primary pathogen (PP) eliminated
Protocol: We next tried to select antibiotics based on building a probability model. Antibiotic efficacy was evaluated based on a novel parameters: • ABEPPMM100—antibiotic concentration that is required for the elimination of 100% “complex” PP+MM. • ABEPPMM99—antibiotic concentration that is required for the elimination of 99% “complex” PP+MM.
ABEPPMM90—antibiotic concentration that is required for the elimination of 90% “complex” PP+MM.
ABEPPMM50—antibiotic concentration that is required for the elimination of 50% “complex” PP+MM.
ABEPP100—antibiotic concentration that affecting on “complex” PP+MM is required for the elimination of 100% PP.
ABEPP99—antibiotic concentration that affecting on “complex” PP+MM is required for the elimination of 99% PP.
ABEPP90—antibiotic concentration that affecting on “complex” PP+MM is required for the elimination of 90% PP.
ABEPP50—antibiotic concentration that affecting on “complex” PP+MM is required for the elimination of 50% PP.
We used sputum from children with pneumonia, with S.aureus as confirmed PP. Patient 1—child • Patient 2—child • Patient 3—child

[9] = cited from earlier work
[10] = Patient 1, C0-1 h, 24 h of growth
[11] = Patient 1, C0-2 h, 24 h of growth
[12] = Patient 1, C0-3 h, 24 h of growth
[13] = Patient 1, C0-4 h, 24 h of growth
[14] = Patient 1, C0-6 h, 24 h of growth
[15] = Patient 1, C0-8 h, 24 h of growth
[16] = Patient 1, C0-12 h, 24 h of growth
[17] = Patient 1, C0-24 h, 24 h of growth
[18] = Patient 1, C2-3 h, 24 h of growth
[19] = Patient 1, C3-4 h, 24 h of growth
[20] = Patient 1, C4-6 h, 24 h of growth
[21] = Patient 1, C6-8 h, 24 h of growth
[22] = Patient 1, C8-12 h, 24 h of growth
[23] = Patient 1, C12-24 h, 24 h of growth
[24] = Patient 1, Cmax × 2, 24 h of growth
[25] = Patient 2, C0-3 h, 24 h of growth
[26] = Patient 2, C0-4 h, 24 h of growth
[27] = Patient 2, C0-6 h, 24 h of growth
[28] = Patient 2, C0-8 h, 24 h of growth
[29] = Patient 2, C0-12 h, 24 h of growth
[30] = Patient 2, C0-24 h, 24 h of growth
[31] = Patient 2, C3-4 h, 24 h of growth
[32] = Patient 2, C4-6 h, 24 h of growth
[33] = Patient 2, C6-8 h, 24 h of growth
[34] = Patient 2, C8-12 h, 24 h of growth
[35] = Patient 2, C12-24 h, 24 h of growth
[36] = Patient 3, C0-3 h, 24 h of growth
[37] = Patient 3, C0-4 h, 24 h of growth
[38] = Patient 3, C0-6 h, 24 h of growth
[39] = Patient 3, C0-8 h, 24 h of growth
[40] = Patient 3, C0-12 h, 24 h of growth
[41] = Patient 3, C0-24 h, 24 h of growth
[42] = Patient 3, C3-4 h, 24 h of growth
[43] = Patient 3, C4-6 h, 24 h of growth
[44] = Patient 3, C6-8 h, 24 h of growth
[45] = Patient 3, C8-12 h, 24 h of growth
[46] = Patient 3, C12-24 h, 24 h of growth

CO/N=C(\C(=O)N[C@@H]1C(=O)N2C(C(=O)[O-])=C(C[N+]3(C)CCCC3)CS[C@H]12)c1csc(N)n1 [Cefepime]
microbial growth, PA (PP alone) [1]: + | microbial growth, RD (BM alone) [2]: − | microbial growth, AU (BM alone) [3]: + | microbial growth, BP (BM alone) [4]: + | microbial growth, MIX (PP + MM) [5]: − | ATB efficacy [6]: + | Number of animals with positive microbial growth on the agar with antibiotics/total number of animals per group ([7]; Blood): 4/8 | Number of animals with positive microbial growth on the agar with antibiotics/total number of animals per group ([7]; Liver): 2/8 | Number of animals with positive microbial growth on the agar with antibiotics/total number of animals per group ([7]; Lungs): 3/8 | Degree of primary pathogen eradication, evaluation of ABEPP [8, 10]: 100 | Degree of primary pathogen eradication, evaluation of ABEPPMM [8, 10]: 100 | Degree of primary pathogen eradication, evaluation of ABEPP [8, 11]: 100 | Degree of primary pathogen eradication, evaluation of ABEPPMM [8, 11]: 100 | Degree of primary pathogen eradication, evaluation of ABEPP [8, 12]: 100 | Degree of primary pathogen eradication, evaluation of ABEPPMM [8, 12]: 100 | Degree of primary pathogen eradication, evaluation of ABEPP [8, 13]: 100 | Degree of primary pathogen eradication, evaluation of ABEPPMM [8, 13]: 100 | Degree of primary pathogen eradication, evaluation of ABEPP [8, 14]: 100 | Degree of primary pathogen eradication, evaluation of ABEPPMM [8, 14]: 100 | Degree of primary pathogen eradication, evaluation of ABEPP [8, 15]: 50 | Degree of primary pathogen eradication, evaluation of ABEPPMM [8, 15]: 50 | Degree of primary pathogen eradication, evaluation of ABEPP [8, 16]: 00 | Degree of primary pathogen eradication, evaluation of ABEPPMM [8, 16]: 00 | Degree of primary pathogen eradication, evaluation of ABEPP [8, 17]: 0 | Degree of primary pathogen eradication, evaluation of ABEPPMM [8, 17]: 0 | Degree of primary pathogen eradication, evaluation of ABEPP [8, 18]: 100 | Degree of primary pathogen eradication, evaluation of ABEPPMM [8, 18]: 100 | Degree of primary pathogen eradication, evaluation of ABEPP [8, 19]: 100 | Degree of primary pathogen eradication, evaluation of ABEPPMM [8, 19]: 100 | Degree of primary pathogen eradication, evaluation of ABEPP [8, 20]: 100 | Degree of primary pathogen eradication, evaluation of ABEPPMM [8, 20]: 100 | Degree of primary pathogen eradication, evaluation of ABEPP [8, 21]: 100 | Degree of primary pathogen eradication, evaluation of ABEPPMM [8, 21]: 100 | Degree of primary pathogen eradication, evaluation of ABEPP [8, 22]: 50 | Degree of primary pathogen eradication, evaluation of ABEPPMM [8, 22]: 00 | Degree of primary pathogen eradication, evaluation of ABEPP [8, 23]: 00 | Degree of primary pathogen eradication, evaluation of ABEPPMM [8, 23]: 00 | Degree of primary pathogen eradication, evaluation of ABEPP [8, 24]: 100 | Degree of primary pathogen eradication, evaluation of ABEPPMM [8, 24]: 100 | Degree of primary pathogen eradication, evaluation of ABEPP [8, 25]: 90 | Degree of primary pathogen eradication, evaluation of ABEPPMM [8, 25]: 90 | Degree of primary pathogen eradication, evaluation of ABEPP [8, 26]: 50 | Degree of primary pathogen eradication, evaluation of ABEPPMM [8, 26]: 50 | Degree of primary pathogen eradication, evaluation of ABEPP [8, 27]: 50 | Degree of primary pathogen eradication, evaluation of ABEPPMM [8, 27]: 50 | Degree of primary pathogen eradication, evaluation of ABEPP [8, 28]: 50 | Degree of primary pathogen eradication, evaluation of ABEPPMM [8, 28]: 50 | Degree of primary pathogen eradication, evaluation of ABEPP [8, 29]: 50 | Degree of primary pathogen eradication, evaluation of ABEPPMM [8, 29]: 50 | Degree of primary pathogen eradication, evaluation of ABEPP [8, 30]: 0 | Degree of primary pathogen eradication, evaluation of ABEPPMM [8, 30]: 0 | Degree of primary pathogen eradication, evaluation of ABEPP [8, 31]: 50 | Degree of primary pathogen eradication, evaluation of ABEPPMM [8, 31]: 50 | Degree of primary pathogen eradication, evaluation of ABEPP [8, 32]: 50 | Degree of primary pathogen eradication, evaluation of ABEPPMM [8, 32]: 50 | Degree of primary pathogen eradication, evaluation of ABEPP [8, 33]: 50 | Degree of primary pathogen eradication, evaluation of ABEPPMM [8, 33]: 50 | Degree of primary pathogen eradication, evaluation of ABEPP [8, 34]: 50 | Degree of primary pathogen eradication, evaluation of ABEPPMM [8, 34]: 50 | Degree of primary pathogen eradication, evaluation of ABEPP [8, 35]: 0 | Degree of primary pathogen eradication, evaluation of ABEPPMM [8, 35]: 0 | Degree of primary pathogen eradication, evaluation of ABEPP [8, 36]: 90 | Degree of primary pathogen eradication, evaluation of ABEPPMM [8, 36]: 90 | Degree of primary pathogen eradication, evaluation of ABEPP [8, 37]: 90 | Degree of primary pathogen eradication, evaluation of ABEPPMM [8, 37]: 90 | Degree of primary pathogen eradication, evaluation of ABEPP [8, 38]: 90 | Degree of primary pathogen eradication, evaluation of ABEPPMM [8, 38]: 90 | Degree of primary pathogen eradication, evaluation of ABEPP [8, 39]: 0 | Degree of primary pathogen eradication, evaluation of ABEPPMM [8, 39]: 0 | Degree of primary pathogen eradication, evaluation of ABEPP [8, 40]: 0 | Degree of primary pathogen eradication, evaluation of ABEPPMM [8, 40]: 0 | Degree of primary pathogen eradication, evaluation of ABEPP [8, 41]: 0 | Degree of primary pathogen eradication, evaluation of ABEPPMM [8, 41]: 0 | Degree of primary pathogen eradication, evaluation of ABEPP [8, 42]: 90 | Degree of primary pathogen eradication, evaluation of ABEPPMM [8, 42]: 90 | Degree of primary pathogen eradication, evaluation of ABEPP [8, 43]: 90 | Degree of primary pathogen eradication, evaluation of ABEPPMM [8, 43]: 90 | Degree of primary pathogen eradication, evaluation of ABEPP [8, 44]: 0 | Degree of primary pathogen eradication, evaluation of ABEPPMM [8, 44]: 0 | Degree of primary pathogen eradication, evaluation of ABEPP [8, 45]: 0 | Degree of primary pathogen eradication, evaluation of ABEPPMM [8, 45]: 0 | Degree of primary pathogen eradication, evaluation of ABEPP [8, 46]: 0 | Degree of primary pathogen eradication, evaluation of ABEPPMM [8, 46]: 0 | lung concentration after 8 h of administration ([9]; 8 h): 23 µg/mL | lung concentration after 12 h of administration ([9]; 12 h): 8 µg/mL
